Results: paper PMC4171207 (Antiviral research, 2014)
Structures can show the parent of a compound that is named as a salt. Where two headings read alike, the source gives them in different places. Marks after values point to notes of the source that are not given here.

Key:
5-FU catabolism = assay: LC-MS/MS analysis of 5-fluorouracil metabolism in mice; format: in vivo, BALB/c mice; details: for 5-FU concentration in plasma: 5-FU 30 mg/kg i.v. plus test drug 10 mg/kg p.o.
[1] = system: human foreskin fibroblasts (HFFs); assay: Neutral red cytotoxicity assay in HFFs; format: cell-based
VZV-BAC-Luc [2] = assay: Drug synergy assay; format: cell-based, varicella-zoster virus; details: HFFs, 48 h, VZV yield by bioluminescence
VZV-BAC-Luc [3] = assay: VZV-BAC-Luc in skin organ culture; format: cell-based, varicella-zoster virus; details: read-out: EC50 in SOC; 6 dpi, bioluminescence imaging, mean ± SD
[4] = for Ratio to Plasma: 2 h post final treatment
VZV-BAC-Luc [5] = assay: microbe, parasite or virus in culture; format: cell-based, varicella-zoster virus; details: for SI (CC50/EC50): selectivity index in HFFs
VZV-BAC-Luc [6] = format: in vivo, varicella-zoster virus; details: SCID-Hu mice
VZV-BAC-Luc [7] = assay: VZV yield in HFFs by quantitative real-time PCR; format: cell-based, varicella-zoster virus

O=c1[nH]cc(F)c(=O)[nH]1 [5-FU, 5-fluorouracil]
5-FU in plasma (average AUC) (5-FU catabolism; 30 min, 5-FU alone 30 mg/kg i.v.): 1246 nM | 5-FU in plasma (5-FU catabolism; 60 min, 5-FU alone 30 mg/kg i.v.): undetectable

Nc1nc2c(ncn2COCCO)c(=O)[nH]1 [ACV, Acyclovir, reference compound]
Mortality (120 mg/kg/day): 0/11

O=c1[nH]c(=O)n([C@H]2C[C@H](O)[C@@H](CO)O2)cc1/C=C/Br [BVdU, (E)-5-(2-Bromovinyl)-2′-deoxyuridine]
5-FU concentration in plasma (5-FU catabolism; 30 min): 945 nM | 5-FU concentration in plasma (5-FU catabolism; 60 min): 685 nM | effect on 5-FU catabolism (5-FU catabolism; mice, 10 mg/kg p.o. with 5-FU 30 mg/kg i.v.): interfered with 5-FU catabolism

O=c1ccn(C2OC(CO)OC2/C=C/Br)c(=O)[nH]1 [L-BHDU (1), β-L-1-[5-(E-2-Bromovinyl)-2-(hydroxymethyl)-1,3-(dioxolan-4-yl)] uracil]
cytotoxicity at 200 μM ([1]; 200 μM, 3 days): noncytotoxic | CC50 ([1]; 72 h, neutral red assay): > 200 µM | interaction with ACV, BVdU and PFA (VZV-BAC-Luc [2]): antagonized the activity of ACV, BVdU and foscarnet | EC50 (VZV-BAC-Luc [3]): 0.24 ± 0.02 µM | concentration in human skin implants relative to EC50 ([4]; 8 mg/kg/day): 10 fold | Ratio to Plasma ([4]; Brain, 8 mg/kg/day): 0.4 (0.3) | Ratio to Plasma ([4]; Brain, 150 mg/kg/day): 0.1 (0.03) | Ratio to Plasma ([4]; Heart, 8 mg/kg/day): 2.9 (2.5) | Ratio to Plasma ([4]; Heart, 150 mg/kg/day): 1.0 (0.2) | Ratio to Plasma ([4]; Kidney, 8 mg/kg/day): 5.1 (3.1) | Ratio to Plasma ([4]; Kidney, 150 mg/kg/day): 2.1 (0.4) | Ratio to Plasma ([4]; Liver, 8 mg/kg/day): 4.5 (1.1) | Ratio to Plasma ([4]; Liver, 150 mg/kg/day): 1.5 (0.3) | Ratio to Plasma ([4]; Lung, 8 mg/kg/day): 11.2 (5.7) | Ratio to Plasma ([4]; Lung, 150 mg/kg/day): 2.3 (0.5) | Ratio to Plasma ([4]; Plasma, 8 mg/kg/day): 1 | Ratio to Plasma ([4]; Plasma, 150 mg/kg/day): 1 | Ratio to Plasma ([4]; Skin (Human) xenograft, 8 mg/kg/day): 3.1 (2.6) | Ratio to Plasma ([4]; Skin (Mouse), 8 mg/kg/day): 3.0 (2.5) | Ratio to Plasma ([4]; Skin (Mouse), 150 mg/kg/day): 0.9 (0.2) | Ratio to Plasma ([4]; Spleen, 8 mg/kg/day): 2.1 (1.3) | Ratio to Plasma ([4]; Spleen, 150 mg/kg/day): 1.4 (0.2) | EC50 (VZV-BAC-Luc [5]; read-out: EC50 in HFFs, 48 hpi, bioluminescence imaging, mean ± SD): 0.22 ± 0.01 µM | SI (CC50/EC50) (VZV-BAC-Luc [5]): >909 | SI (CC50/EC50) (VZV-BAC-Luc [5]; listed as L-BHDU): > 909 | Ave. VZV Growth Rate (± SD) (VZV-BAC-Luc [6]; 8 mg/kg/day oral gavage): 0.33 (0.03) Log10(photons/s/day) | Ave. VZV Growth Rate (± SD) (VZV-BAC-Luc [6]; 8 mg/kg/day oral gavage, listed as L-BHDU): 0.33 ± 0.03 Log10(photons/s/day) | Ave. VZV Growth Rate (± SD) (VZV-BAC-Luc [6]; 15 mg/kg/day oral gavage): 0.25 (0.09) ^* Log10(photons/s/day) | Ave. VZV Growth Rate (± SD) (VZV-BAC-Luc [6]; 15 mg/kg/day oral gavage, listed as L-BHDU): 0.25 ± 0.9 Log10(photons/s/day) | Ave. VZV Growth Rate (± SD) (VZV-BAC-Luc [6]; 150 mg/kg/day oral gavage): 0.22 (0.06) ^* Log10(photons/s/day) | Ave. VZV Growth Rate (± SD) (VZV-BAC-Luc [6]; 150 mg/kg/day oral gavage, listed as L-BHDU): 0.22 ± 0.6 Log10(photons/s/day) | VZV genome copy number (VZV-BAC-Luc [7]): reduced VZV genome copy number | EC50 (VZV-BAC-Luc [7]; read-out: EC50 determined by qPCR, VZV genomes): ~0.07 µM | Mortality (8 mg/kg/day): 1/5 | Mortality (15 mg/kg/day): 0/5 | Mortality (150 mg/kg/day): 0/5 | overt toxicity in vivo (mouse, in vivo): No overt toxicity | weight loss (mouse, in vivo): moderate weight loss

O=C(O)P(=O)(O)O [PFA, sodium phosphonoformate tribasic hexahydrate, reference compound]
EC50 (VZV-BAC-Luc [5]; Human alphaherpesvirus 3, read-out: EC50 in HFFs): 40 µM

CC(C)[C@H](N)C(=O)OCCOCn1cnc2c(=O)[nH]c(N)nc21 [VACV, Valacyclovir HCl, reference compound]
Ave. VZV Growth Rate (± SD) (VZV-BAC-Luc [6]; 120 mg/kg/day oral gavage): 0.40 (0.09) Log10(photons/s/day) | effect on VZV replication (VZV-BAC-Luc [6]; 120 mg/kg/day): had no effect on VZV replication | Ave. VZV Growth Rate (± SD) (VZV-BAC-Luc [6]; 200 mg/kg/day oral gavage): 0.27 (0.07) ^* Log10(photons/s/day) | Ave. VZV Growth Rate (± SD) (VZV-BAC-Luc [6]; 200 mg/kg/day oral gavage, listed as Valacyclovir): 0.27 ± 0.07 Log10(photons/s/day) | ABWD (±SD), Average Body Weight Difference from Days 0–7 (120 mg/kg/day): −2.9 (1.2) ^* grams | Mortality (120 mg/kg/day): 0/11 | ABWD (±SD), Average Body Weight Difference from Days 0–7 (200 mg/kg/day): −3.6 (1.5) ^* grams | Mortality (200 mg/kg/day): 0/10
